Experimental data as given in patent publication EP0466944A1, “4H-3,1-BENZOXAZIN-4-ONE COMPOUND AND ELASTASE INHIBITOR COMPOSITION CONTAINING THE SAME” (TEIJIN LIMITED, priority 1990, dated 1991).

System: human purulent sputum elastase
Assay: Inhibitory effect on pulmonary hemorrhage in elastase-given hamsters (hemoglobin in bronchoalveolar lavage fluid)
Assay type: in vivo, Syrian Golden Hamsters
Conditions: 1 mg/kg through respiratory tract 30 minutes before elastase (1 mg/kg), lavage three hours after elastase
Description: The efficacy of the compounds of the invention in vivo can be evaluated by the following procedures. In other words, a certain dose of a solution or dispersion of the compound of the invention is given through the respiratory tract, then human purulent sputum elastase is given through the respiratory tract after a certain time. The bronchoalveolar lavage were performed at a definite time after the elastase treatment and the hemoglobin is determined in the bronchoalveolar lavage fluids. The pulmonary hemorrhage is compared with that when a solution containing no compound of the present invention is given to measure the hemorrhage-inhibitory effect of the compounds of the present invention (Bonney et al., J. Cellular Biochemistry, 39, 47 - 53, (1989)).
The compounds according to the invention listed in Table 3 were dissolved or dispersed in 0.01 M phosphate-buffered physiological saline solution (pH 7.5), given to Syrian Golden Hamsters (body weight: about 100 g) 1 mg/kg through respiratory tract, then 30 minutes later, human purulent sputum elastase was given (1 mg/kg) through respiratory tract. Three hours after elastase administration, the animals were sacrificed by bleeding to open their chests and the bronchoalveolar lavage was performed with physiological saline solution. The hemoglobin in the lavage fluid was determined by the cyanmethemoglobin method. […]

Cc1cc(NC(=O)C(Cc2ccccc2)NC(=O)OCc2ccccc2)cc2nc(NC(C)C)oc(=O)c12 (stereo not shown) [Comparative example 1]
inhibition rate of pulmonary hemorrhage: weak
